Experimental data reported in EP1175907A1, “REMEDIES” (Takara Shuzo Co, Ltd., priority 1999, dated 2000).

System: MRC-5 cells
Test: induction action for HGF production in MRC-5 cells (HGF ELISA of medium)
Format: cell-based, Human
Conditions: 24 h, control = 100%
Protocol: (1) Five-hundred microliters each of MRC-5 cells (CCL171: manufactured by DAINIPPON PHARMACEUTICAL CO., LTD., code. 02-021) suspended in a DME medium containing 10% fetal bovine serum so as to have a concentration of 1 × 10^5 cells/ml were added into each well of a 48-well cell culture plate. The cells were cultured at 37°C for 24 hours in the presence of 5% CO2, and then the medium was exchanged for a DME medium containing 1% fetal bovine serum. […] The medium was then collected, and by using Quantikine Human Hepatocyte Growth Factor (HGF) ELISA Kit (manufactured by Funakoshi, Code. RS-0641-00), the amount of HGF in the medium was determined.
As a control, distilled water was added in the same volume as that of the sample. The amount of HGF of the control was 7.2 ng/ml. The amount of HGF produced in each sample-added group is shown in Table 1, assuming that the value of the control is 100%. Each experiment was carried out twice, and its average value was taken.

Substance	Amount of HGF Produced (sample 10 µg/ml) [%]	Amount of HGF Produced (sample 100 µg/ml) [%]	Amount of HGF Produced (sample 1000 µg/ml) [%]	Amount of HGF Produced (sample 1 µg/ml) [%]
sodium salt of sulfated 2-deoxy-glucose	127	102	239	
sodium salt of sulfated maltoheptaose	341	486	706	
sodium salt of sulfated sucrose	355	501		173
sodium salt of sulfated D-(+)- xylose [Sodium Salt of Sulfated Xylose]	110	112	284	
sodium salt of sulfated palatinose	132	278	519	
sodium salt of sulfated trehalose	447	421		277
sodium salt of sulfated isomaltose	134	301	477	
sodium salt of sulfated lactulose	139	376	583	
sodium salt of sulfated D-glucitol [Sodium Salt of Sulfated Glucitol]	112	203	335	
sodium salt of sulfated D-(+)-glucose [Sodium Salt of Sulfated Glucose]	377	864		178
sodium salt of sulfated cellobiose	100	143	546	
sodium salt of sulfated D-(+)- mannose [Sodium Salt of Sulfated Mannose]	175	456		112
sodium salt of sulfated turanose	127	203	379	
sodium salt of sulfated maltotriose	286	387		151
sodium salt of sulfated dodecyl-maltohexaose	289	371	359	
sodium salt of sulfated D-(+)-galactose [Sodium Salt of Sulfated Galactose]		166		
sodium salt of sulfated D-talose [Sodium Salt of Sulfated Talose]	112	263	494	
sodium salt of sulfated lactose	185	410		118
sodium salt of sulfated melibiose	240	403	667	
sodium salt of sulfated maltohexaose	407	571	761	
sodium salt of sulfated maltose	273	439		142
